In patent publication US20110268812A1, “Cosmetic or dermatological composition comprising the combination of honey and a peptide” (LVMH RECHERCHE, priority 2010, published 2011):
Ends that are not written are not given here. * marks the point of attachment. Palmitoyl = CCCCCCCCCCCCCCCC(=O)*

System: normal human fibroblasts (NHFs)
Assay: In vitro healing test: recolonization of the damaged zone by fibroblasts (IBIDI culture inserts)
Type: cell-based
Details: 16 h treatment in DMEM alone, final concentrations: clover honey 100 μg/mL, Pal-VGVAPG solution 1%, change vs nontreated control (NT)
Procedure: This experiment is based on a model of biocompatible cell culture inserts allowing quantitative and perfectly reproducible measurement of the phenomena of healing in vitro.
The cells used in this study are normal human fibroblasts (NHFs).
The cells are seeded in 175 cm^2 flasks at a density of 1 million per flask in DMEM (Dulbecco's Modified Eagle's Medium) culture medium supplemented with 10% of foetal calf serum and 1.3 mM L-glutamine. Having reached confluence, the cells are trypsinized and re-seeded for the healing test.
Before seeding of the cells, inserts sold in the form of kits under the name Culture-Insert (ref. 80209) by the company IBIDI (Germany) are placed at the bottom of six wells of a plate. […]
The cells are maintained in culture for 16 h (optimum measurement time determined previously), in an incubator at 37° C. and in an atmosphere containing 5% CO2. […]
Images are immediately taken on a Nikon TE2000 video microscope in blue fluorescence (cell nuclei) and red fluorescence (actin filaments), at a rate of 2 photos per well at the damaged zone.
Image analysis is used to visualize and quantify the colonization by fibroblasts of the artificially “damaged” zone after removal of the insert. […]
The number of cells that have recolonized the damaged zone, per unit area (cm^2), is calculated. […]

palmitoyl-Val-Gly-Val-Ala-Pro-Gly (Palmitoyl-VGVAPG) [Pal-VGVAPG, sold in the form of an aqueous-glycolic solution under the trade name Biopeptide EL by the company Sederma]
recolonization of the damaged zone (number of cells having recolonized per cm^2) compared with the nontreated control: +150%
